Assay results taken from patent US8247211B2, “Glycopeptide antibiotics” (American Cyanamid Company, priority 2001, dated 2012).
≈ marks a conversion by molar mass, not a printed value. One block for each compound: values may come before it.

Legend:
Assay in all cases: In vitro antibacterial evaluation: minimum inhibitory concentration (MIC), broth dilution method
Format in all cases: cell-based
Conditions in all cases: 18 hours at 35° C.
Staphylococcus sp. = test system: Staphylococcus sp.
Summary of the method: (§1)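 Test strains, among them recent clinical isolates carrying methicillin, penicillin and/or vancomycin resistance, were inoculated at 5×10^5 CFU/mL. A broth dilution series spanning 64-0.06 μg/mL in Muller-Hinton II […] (NCCLS M7-A2) defined the MIC as the lowest growth-inhibiting concentration.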

Streptococcus sp. = test system: Streptococcus sp.
Summary of the method: as §1

Enterococcus sp. = test system: Enterococcus sp.
Summary of the method: as §1

Escherichia coli = test system: Escherichia coli
Summary of the method: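 Using Muller-Hinton II […] and an inoculum of 5×10^5 CFU/mL, antibiotic dilutions from 64 down to 0.06 μg/mL were tested following NCCLS M7-A2. The MIC is the lowest concentration inhibiting growth, including in methicillin-, penicillin- or vancomycin-resistant clinical isolates.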

[1] = Streptococcus pneumoniae (ATCC 6301)
[2] = Streptococcus pneumoniae (GC 1894)
[3] = Streptococcus pneumoniae (GC 4565)
[4] = broth dilution, inoculum 5×10^5 CFU/mL

MIC Coagulase Negative Staphylococcus (GC 4547) (Staphylococcus sp.; Coagulase Negative Staphylococcus (GC 4547)): 4 µg/mL (≈ 2.87 µM) | MIC Coagulase Negative Staphylococcus (GC 4548) (Staphylococcus sp.; Coagulase Negative Staphylococcus (GC 4548)): 2 µg/mL (≈ 1.44 µM) | MIC Coagulase Negative Staphylococcus (GC 4549) (Staphylococcus sp.): 2 µg/mL (≈ 1.44 µM) | MIC Coagulase Negative Staphylococcus (GC 4551) (Staphylococcus sp.; Coagulase Negative Staphylococcus (GC 4551)): 4 µg/mL (≈ 2.87 µM) | MIC Coagulase Negative Staphylococcus (GC 6257) (Staphylococcus sp.): 2 µg/mL (≈ 1.44 µM) | MIC Staphylococcus aureus (ATCC 29213) (Staphylococcus sp.; Staphylococcus aureus (ATCC 29213)): 8 µg/mL (≈ 5.75 µM) | MIC Staphylococcus aureus (GC 1131) (Staphylococcus sp.; Staphylococcus aureus (GC 1131)): 8 µg/mL (≈ 5.75 µM) | MIC Staphylococcus aureus (GC 3051) (Staphylococcus sp.; Staphylococcus aureus (GC 3051)): 8 µg/mL (≈ 5.75 µM) | MIC Staphylococcus aureus (GC 3053) (Staphylococcus sp.; Staphylococcus aureus (GC 3053)): 16 µg/mL (≈ 11.5 µM) | MIC Staphylococcus aureus (GC 4541) (Staphylococcus sp.; Staphylococcus aureus (GC 4541)): 8 µg/mL (≈ 5.75 µM) | MIC Staphylococcus aureus (GC 4542) (Staphylococcus sp.; Staphylococcus aureus (GC 4542)): 1 µg/mL (≈ 0.719 µM) | MIC Staphylococcus aureus (GC 4544) (Staphylococcus sp.; Staphylococcus aureus (GC 4544)): 8 µg/mL (≈ 5.75 µM) | MIC Staphylococcus aureus (GC 4545) (Staphylococcus sp.; Staphylococcus aureus (GC 4545)): 8 µg/mL (≈ 5.75 µM) | MIC Staphylococcus aureus-SMITH (GC 4543) (Staphylococcus sp.; Staphylococcus aureus-SMITH (GC 4543)): 4 µg/mL (≈ 2.87 µM) | MIC Streptococcus agalactiae (GC 4564) (Streptococcus sp.; Streptococcus agalactiae (GC 4564)): 4 µg/mL (≈ 2.87 µM) | MIC Streptococcus pneumoniae (ATCC 6301) (Streptococcus sp.; [1]): 1 µg/mL (≈ 0.719 µM) | MIC Streptococcus pneumoniae (GC 1894) (Streptococcus sp.; [2]): 0.5 µg/mL (≈ 0.359 µM) | MIC Streptococcus pneumoniae (GC 4565) (Streptococcus sp.; [3]): 1 µg/mL (≈ 0.719 µM) | MIC Streptococcus pyogenes (GC 4563) (Streptococcus sp.; Streptococcus pyogenes (GC 4563)): 2 µg/mL (≈ 1.44 µM) | MIC Streptococcus agalactiae (GC 4564) (Streptococcus sp.; [4]): 4 µg/mL (≈ 2.87 µM) | MIC Streptococcus pneumoniae (ATCC 6301) (Streptococcus sp.; [4]): 1 µg/mL (≈ 0.719 µM) | MIC Streptococcus pneumoniae (GC 1894) (Streptococcus sp.; [4]): 0.5 µg/mL (≈ 0.359 µM) | MIC Streptococcus pneumoniae (GC 4565) (Streptococcus sp.; [4]): 1 µg/mL (≈ 0.719 µM) | MIC Streptococcus pyogenes (GC 4563) (Streptococcus sp.; [4]): 2 µg/mL (≈ 1.44 µM) | MIC Enterococcus avium (GC 4558) (Enterococcus sp.; Enterococcus avium (GC 4558)): 32 µg/mL (≈ 23 µM) | MIC Enterococcus faecalis (ATCC 29212) (Enterococcus sp.; Enterococcus faecalis (ATCC 29212)): 32 µg/mL (≈ 23 µM) | MIC Enterococcus faecalis (GC 2242) (Enterococcus sp.; Enterococcus faecalis (GC 2242)): 32 µg/mL (≈ 23 µM) | MIC Enterococcus faecalis (GC 2691) (Enterococcus sp.; Enterococcus faecalis (GC 2691)): 32 µg/mL (≈ 23 µM) | MIC Enterococcus faecalis (GC 3059) (Enterococcus sp.; Enterococcus faecalis (GC 3059)): 64 µg/mL (≈ 46 µM) | MIC Enterococcus faecalis (GC 4552) (Enterococcus sp.; Enterococcus faecalis (GC 4552)): 32 µg/mL (≈ 23 µM) | MIC Enterococcus faecalis (GC 4553) (Enterococcus sp.; Enterococcus faecalis (GC 4553)): 32 µg/mL (≈ 23 µM) | MIC Enterococcus faecalis (GC 4554) (Enterococcus sp.; Enterococcus faecalis (GC 4554)): 64 µg/mL (≈ 46 µM) | MIC Enterococcus faecalis (GC 6189) (Enterococcus sp.; Enterococcus faecalis (GC 6189)): 32 µg/mL (≈ 23 µM) | MIC Enterococcus faecium (GC 2243) (Enterococcus sp.; Enterococcus faecium (GC 2243)): 32 µg/mL (≈ 23 µM) | MIC Enterococcus faecium (GC 4556) (Enterococcus sp.; Enterococcus faecium (GC 4556)): 32 µg/mL (≈ 23 µM) | MIC Enterococcus faecium (GC 4557) (Enterococcus sp.): 4 µg/mL (≈ 2.87 µM) | MIC Enterococcus faecalis (GC 2242) (Enterococcus sp.; [4]): 32 µg/mL (≈ 23 µM) | MIC Enterococcus faecalis (GC 2691) (Enterococcus sp.; [4]): 32 µg/mL (≈ 23 µM) | MIC Enterococcus faecalis (GC 3059) (Enterococcus sp.; [4]): 64 µg/mL (≈ 46 µM) | MIC Escherichia coli (ATCC 25922) (Escherichia coli; Escherichia coli (ATCC 25922)): >64 µg/mL | MIC Escherichia coli (GC 4559) (Escherichia coli; Escherichia coli (GC 4559)): 64 µg/mL (≈ 46 µM) | MIC Escherichia coli (GC 4560) (Escherichia coli): 2 µg/mL (≈ 1.44 µM)
Structure (SMILES): CC(c1ccccc1)C1NC(=O)CNC(=O)C(CO)NC(=O)C(C(O)C2CNC(=N)N2C2OC(CO)C(O)C(O)C2O)NC(=O)C(C(O)C2CNC(=N)N2)NC(=O)C(Cc2ccc(OC3OC(CO)C(OC4OC(COCc5cccs5)C(O)C(O)C4O)C(O)C3O)cc2)NC1=O (stereo not drawn) [Example 244, Cyclo[glycyl-β-methylphenylalanyl-O-[4-O-[6-O-(2-thienylmethyl)hexopyranosyl]hexopyranosyl]tyrosyl-3-(2-iminoimidazolidin-4-yl)seryl-3-(3-hexopyranosyl-2-iminoimidazolidin-4-yl)serylseryl]]
MIC Staphylococcus haemolyticus (GC 4546) (Staphylococcus sp.; Staphylococcus haemolyticus (GC 4546)): 4 µg/mL (≈ 2.87 µM)

MIC Coagulase Negative Staphylococcus (GC 4549) (Staphylococcus sp.): 64 µg/mL (≈ 44.6 µM) | MIC Coagulase Negative Staphylococcus (GC 6257) (Staphylococcus sp.): 64 µg/mL (≈ 44.6 µM) | MIC Streptococcus pneumoniae (ATCC 6301) (Streptococcus sp.; [1]): 64 µg/mL (≈ 44.6 µM) | MIC Streptococcus pneumoniae (GC 1894) (Streptococcus sp.; [2]): 32 µg/mL (≈ 22.3 µM) | MIC Streptococcus pneumoniae (GC 4565) (Streptococcus sp.; [3]): 64 µg/mL (≈ 44.6 µM) | MIC Streptococcus pneumoniae (ATCC 6301) (Streptococcus sp.; [4]): 64 µg/mL (≈ 44.6 µM) | MIC Streptococcus pneumoniae (GC 1894) (Streptococcus sp.; [4]): 32 µg/mL (≈ 22.3 µM) | MIC Streptococcus pneumoniae (GC 4565) (Streptococcus sp.; [4]): 64 µg/mL (≈ 44.6 µM) | MIC Enterococcus faecium (GC 4557) (Enterococcus sp.): 64 µg/mL (≈ 44.6 µM) | MIC Escherichia coli (GC 4560) (Escherichia coli): 32 µg/mL (≈ 22.3 µM)
Structure (SMILES): COc1ccc2cc(COC3C(OC4C(CO)OC(Oc5ccc(CC6NC(=O)C(C(C)c7ccccc7)NC(=O)CNC(=O)C(CO)NC(=O)C(CC7CNC(=N)N7C7OC(CO)C(O)C(O)C7O)NC(=O)C(CC7CNC(=N)N7)NC6=O)cc5)C(O)C4O)OC(CO)C(O)C3O)ccc2c1 (centres unmarked) [Example 245c, Cyclo[3-(2-iminoimidazolidin-4-yl)alanyl-3-(3-hexopyranosyl-2-iminoimidazolidin-4-yl)-alanylserylglycyl-62-methylphenylalanyl-O-[4-O-[2-O-[(6-methoxy-2-naphthyl)methyl]-hexopyranosyl]hexopyranosyl]tyrosyl]]
